Activity calls are given as the source filed them. How the calls were made is not given here.
Tested on: S. cerevisiae SKN7-toxicity growth rescue, plate reader
Assay: SKN7 mediated toxicity in Saccharomyces cerevisiae, growth rescue counterscreen, dose confirmation (AID 624258);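 further: growth read after three days of incubation at 30 °C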

`O=C1CC(N2CCCCCC2)C(=O)N1c1ccc2c(c1)OCO2` (configuration not stated) was tested. Which AC40 did it give?
The AC40 was 6.75 µM.

For `Cc1csc2nc(O)c(C(=O)NCCCc3ccccc3)c(=O)n12`, which AC40 is on record?
The AC40 was 0.801 µM.

How did the AC40 turn out when `O/C(=C\c1nc2ccccc2nc1/C=C(\O)c1ccccc1)c1ccccc1` was run?
Its AC40 is 4.59 µM.

How did the AC40 turn out when `Cc1cc(C)c(OCC(=O)Nc2nc(-c3ccccn3)cs2)c(C)c1` was run?
Its AC40 is 0.562 µM.

Which AC40 does the source give for `Cc1ccc(C(C)(C)C)cc1S(=O)(=O)Nc1ncnc2sccc12` here?
Its AC40 is 1.15 µM.

`Cc1c(C(=O)NCCSCc2cccc(C(F)(F)F)c2)cnn1-c1ccc(Cl)cc1` was tested. Which AC40 did it give?
Its AC40 is 6.53 µM.

`Cc1onc(-c2ccccc2)c1C(=O)OCc1nnc(-c2ccc([N+](=O)[O-])cc2)o1` was tested. Which AC40 did it give?
The AC40 was 2.27 µM.

With `O=C(N/N=C/c1sc(N2CCOCC2)nc1-c1ccccc1)c1ccccc1O` as the compound, how does the AC40 read?
Its AC40 is 3.04 µM.

Which AC40 does the source give for `O=C(Oc1cccc(C(=S)N2CCOCC2)c1)c1ccc([N+](=O)[O-])cc1[N+](=O)[O-]` here?
Its AC40 is 16.4 µM.

With `CCCCC(=O)NC(c1ccc(N(C)C)cc1)c1ccc2cccnc2c1O` (configuration not stated) as the compound, how does the AC40 read?
Its AC40 is 0.754 µM.

Which AC40 does the source give for `Cc1ccc(-c2nn(C(C)(C)C)c3ncnc(N)c23)cc1` here?
The AC40 was 9.29 µM.

Which AC40 does the source give for `COc1ccc(N2C(=O)C(Cl)=C(Nc3ccccc3O)C2=O)cc1` here?
Its AC40 is 4.9 µM.

With `Cc1cc(-c2ccccc2)n(-c2cc(N/N=C/c3ccccc3O)ncn2)n1` as the compound, how does the AC40 read?
Its AC40 is > 19.5 µM (inactive).

With `COC1=CC(=O)c2c(ccc3ncnc(N)c23)C1=O` as the compound, how does the AC40 read?
The AC40 was 10.1 µM.

For `CNC(=S)Nc1ccc(C23CC4CC(CC(C4)C2)C3)cc1`, which AC40 is on record?
Its AC40 is 2.47 µM.

How did the AC40 turn out when `COc1cccc(/C=N/NC(=O)c2cc(-c3cccn3C)n[nH]2)c1O` was run?
Its AC40 is 5.62 µM.

`Cn1cnc([N+](=O)[O-])c1S(=O)(=O)Oc1ccc(Cl)cc1` was tested. Which AC40 did it give?
Its AC40 is 1.31 µM.

For `Nc1c(Cl)ncnc1N/N=C/c1ccc2ccccc2n1`, which AC40 is on record?
The AC40 was 4.34 µM.

`O=C1c2ccccc2NC(c2ccc(-c3ccc(C(F)(F)F)cc3)o2)N1O` (configuration not stated) was tested. Which AC40 did it give?
The AC40 was 1.71 µM.

`COc1ccc(-c2cc(C(=O)N3CCN(c4ccccc4F)CC3)c3ccccc3n2)c(OC)c1` was tested. Which AC40 did it give?
Its AC40 is > 19.5 µM (inactive).

With `CSc1cccc(NC(=O)/C=C/c2cccc(Cl)c2)c1` as the compound, how does the AC40 read?
Its AC40 is 4.52 µM.

`COc1ccccc1CNC(=O)CSc1ccc(-c2ccccn2)nn1` was tested. Which AC40 did it give?
Its AC40 is 10.3 µM.

Which AC40 does the source give for `O=C1Nc2c(Cl)cc(Cl)cc2C1=O` here?
Its AC40 is > 19.5 µM (inactive).

How did the AC40 turn out when `COc1cc2c(cc1/C=C/[N+](=O)[O-])OCO2` was run?
Its AC40 is 6.54 µM.

For `O=c1cnn([C@@H]2O[C@H](CO)[C@@H](O)[C@H]2O)c(=O)[nH]1`, which AC40 is on record?
The AC40 was 0.882 µM.

`Cc1ccc(CNC(=O)C2COc3ccccc3O2)cc1` (configuration not stated) was tested. Which AC40 did it give?
The AC40 was 17.7 µM.

Which AC40 does the source give for `COc1ccc2nc(NN=C(C)c3ccccn3)cc(C)c2c1` here?
The AC40 was 3.23 µM.

For `Cc1[nH]n(-c2cccc3ccccc23)c(=O)c1/C=N/NC(=O)c1cccc([N+](=O)[O-])c1`, which AC40 is on record?
The AC40 was 0.738 µM.

Which AC40 does the source give for `COc1ccc(-c2sc3ccccc3c2C#Cc2cncn2C)cc1` here?
The AC40 was 1.24 µM.

`CCOc1ccc(/C=C2/SC(=O)NC2=S)cc1` was tested. Which AC40 did it give?
Its AC40 is 1.24 µM.

Which AC40 does the source give for `COc1ccc(CNc2ncnc3sccc23)cc1` here?
The AC40 was 14.6 µM.

`O=C(c1ccco1)N1CCN(C(=O)c2ccccc2OCc2ccc(Cl)cc2)CC1` was tested. Which AC40 did it give?
The AC40 was 19.1 µM.

Which AC40 does the source give for `CSC(=S)N/N=C/c1ccccc1` here?
Its AC40 is 3.19 µM.

With `Cc1cc(C(=O)N/N=C/c2cc(Br)cc([N+](=O)[O-])c2O)c2ccccc2n1` as the compound, how does the AC40 read?
Its AC40 is 1.27 µM.

How did the AC40 turn out when `Cc1n[nH]c(C)c1N=Nc1ccc(Br)cc1` was run?
Its AC40 is 1.76 µM.

With `COc1ccc(-c2cc(C(=O)NNC(=S)NC(=O)c3c(-c4ccccc4)noc3C)[nH]n2)cc1` as the compound, how does the AC40 read?
The AC40 was 2.31 µM.

`Cc1ccc(-n2nnnc2C(Cl)c2nnnn2-c2ccc(C)cc2)cc1` was tested. Which AC40 did it give?
Its AC40 is 0.497 µM.

With `O=C(C1=C(Nc2ccccc2)c2ccccc2S(=O)(=O)N1)c1ccccc1` as the compound, how does the AC40 read?
The AC40 was 2.51 µM.

How did the AC40 turn out when `CC1CC(C)CC(C)C(O)C(C#N)=CC=CCC(C2CCCC2C(=O)O)OC(=O)CC(O)C(C)C1` (configuration not stated) was run?
Its AC40 is 10.3 µM.

For `COc1ccc(C(=O)NC(=S)NNC(=O)CCc2ccccc2)cc1`, which AC40 is on record?
Its AC40 is 1.42 µM.

For `COc1ccc(CNC(=O)c2c(C)oc3c2C(=O)c2ccccc2C3=O)cc1`, which AC40 is on record?
Its AC40 is 8.26 µM.

`Cc1nn(CCC(N)=S)c2nc(-c3cccs3)cc(C(F)(F)F)c12` was tested. Which AC40 did it give?
The AC40 was 14.1 µM.

Which AC40 does the source give for `CCc1ccc([C@@H]2CC=C(C(=O)O)[C@H](c3ccc(Cl)cc3)N2S(=O)(=O)c2ccc(C)cc2)cc1` here?
The AC40 was 4.51 µM.

For `S=c1[nH]nc(-c2ccco2)n1/N=C/C(Cl)=C/c1ccccc1`, which AC40 is on record?
The AC40 was 10.8 µM.

With `O=NN(CCc1ccncc1)c1ccc(OCc2ccccc2)cc1` as the compound, how does the AC40 read?
The AC40 was 2.98 µM.

`Cc1cccc(N2C(=O)C(Oc3ccc(Cl)cc3Cl)C2C=O)c1C` (configuration not stated) was tested. Which AC40 did it give?
The AC40 was 1.98 µM.

`COC(=O)c1ccc(N2C(=O)CC(N(C)CCc3ccc(OC)c(OC)c3)C2=O)cc1` (configuration not stated) was tested. Which AC40 did it give?
Its AC40 is 8.6 µM.

`O=[N+]([O-])c1ccc(O)c(/C=N/Nc2ccccn2)c1` was tested. Which AC40 did it give?
Its AC40 is 1.42 µM.

For `CCOC(=O)c1ccc(NC(=O)CC2C(=O)OCCN2CC)cc1` (configuration not stated), which AC40 is on record?
The AC40 was 4.89 µM.

For `CSc1nccc(NC(=O)c2ccc(C(C)(C)C)cc2)n1`, which AC40 is on record?
The AC40 was 7.82 µM.

Which AC40 does the source give for `COc1cccc(Oc2cncnc2-c2ccc(OC)cc2O)c1` here?
Its AC40 is 18.9 µM.

`C[C@@]12C(=O)Nc3ccc(F)cc3C(=O)N1[C@H]1c3ccccc3OC[C@@H]1[C@@H]2c1ccccc1` was tested. Which AC40 did it give?
Its AC40 is 11.5 µM.

With `CCOC(=O)N1CCN(S(=O)(=O)c2ccc(C(=O)NNc3nc4ccc(Cl)cc4s3)cc2)CC1` as the compound, how does the AC40 read?
The AC40 was 6.89 µM.

How did the AC40 turn out when `N#C/C(=C\c1cccc(Oc2ccccc2)c1)C(=O)N1CCOCC1` was run?
The AC40 was 8.47 µM.

For `S=C1SCN(Cc2cccnc2)CN1Cc1cccnc1`, which AC40 is on record?
The AC40 was 1.01 µM.

Which AC40 does the source give for `Cc1cc2[nH]c3c4ccccc4nc(C)c3c2cc1C` here?
The AC40 was 11.2 µM.

For `CCCCCCCCCCOC(=O)Cn1c(COc2ccc(OC)cc2)[n+](C)c2ccccc21`, which AC40 is on record?
Its AC40 is 3.33 µM.

`O=S(=O)(CCSc1nc2ccccc2s1)c1nc2ccccc2s1` was tested. Which AC40 did it give?
Its AC40 is 2.43 µM.

How did the AC40 turn out when `Cc1ccc(C(C[N+](=O)[O-])c2c(N)n(C)c(=O)n(C)c2=O)cc1` (configuration not stated) was run?
The AC40 was 4.96 µM.

Which AC40 does the source give for `CC/C(=N\Nc1ccc([N+](=O)[O-])cc1)c1ccccc1` here?
Its AC40 is 1.62 µM.

With `CC1Cc2ccccc2N1c1ncnc(N)c1[N+](=O)[O-]` (configuration not stated) as the compound, how does the AC40 read?
The AC40 was 7.27 µM.

For `CC1=CC(=O)C=C(C)C1=NOS(=O)(=O)c1ccccc1`, which AC40 is on record?
The AC40 was 0.454 µM.

Which AC40 does the source give for `Cc1ccnc(N2C(=O)c3cccc4c([N+](=O)[O-])ccc(c34)C2=O)c1` here?
Its AC40 is 0.166 µM.

`O=C(NC1=CC(=O)c2ccccc2C1=O)c1ccccc1` was tested. Which AC40 did it give?
Its AC40 is 3.18 µM.

For `O=C(Nc1cccnc1)c1ccc2ccccc2c1O`, which AC40 is on record?
Its AC40 is 0.908 µM.

For `Oc1ccccc1N=Cc1ccc[nH]1`, which AC40 is on record?
The AC40 was > 0.75 µM (inactive).

Which AC40 does the source give for `COc1ccc(N(C(=O)c2ccncc2)S(=O)(=O)c2ccc(F)cc2)cc1` here?
The AC40 was 3.67 µM.

Which AC40 does the source give for `Cc1onc(-c2ccccc2)c1C(=O)NC(=S)NNC(=O)c1cc(-c2ccc(F)cc2)n[nH]1` here?
Its AC40 is 2.1 µM.

How did the AC40 turn out when `CC(NC(=S)NC1CCC(C(C)(C)C)CC1)c1ccccc1` (configuration not stated) was run?
The AC40 was 6.16 µM.

How did the AC40 turn out when `CC(C)=CCc1c(O)cc(O)c2c1OC(c1ccc(O)cc1)CC2=O` (configuration not stated) was run?
The AC40 was 12.7 µM.

`COc1ccc(CSCC(=O)Nc2ccc(S(=O)(=O)N3CCCCCC3)cc2)cc1` was tested. Which AC40 did it give?
The AC40 was 6.93 µM.

With `Cc1nc(Sc2ccc(Cl)cc2)c(C#N)c(C)c1[N+](=O)[O-]` as the compound, how does the AC40 read?
Its AC40 is 0.937 µM.

How did the AC40 turn out when `O=C1c2ccccc2C2=Nc3ccccc3SC(c3cccc(F)c3)C12` (configuration not stated) was run?
The AC40 was 1.24 µM.

How did the AC40 turn out when `CN(C)S(=O)(=O)c1cccc(NC(=S)NNC(=O)c2cc3ccccc3cc2O)c1` was run?
Its AC40 is 1.27 µM.

`O=Cc1cc(N=Nc2ccccc2Cl)ccc1O` was tested. Which AC40 did it give?
The AC40 was 0.446 µM.

Which AC40 does the source give for `Cc1cccc2sc(NNC(=O)c3ccc(S(=O)(=O)N4CC(C)CC(C)C4)cc3)nc12` (configuration not stated) here?
Its AC40 is 0.736 µM.

For `COc1ccc([C@H]2[C@H]3C=CC[C@@H](C)[C@@H]3C(=O)N2Cc2ccccc2)cc1Cl`, which AC40 is on record?
Its AC40 is 4.57 µM.

How did the AC40 turn out when `CC1=CC(=O)C(C(C)C)=C/C1=N/OS(=O)(=O)c1ccccc1` was run?
Its AC40 is 0.11 µM.

For `c1ccc(Cn2cc(-c3cccnc3)cn2)cc1`, which AC40 is on record?
Its AC40 is 1.46 µM.

Which AC40 does the source give for `COc1ccc(NC(=O)/C(Cl)=C(/Cl)S(=O)(=O)Cc2ccc(C)cc2)cn1` here?
The AC40 was 1.24 µM.

With `c1cncc(-c2nnc(-c3cccnc3)nn2)c1` as the compound, how does the AC40 read?
The AC40 was 8.28 µM.

With `O=C1C=C(Nc2ccccc2O)c2ccccc2C1=O` as the compound, how does the AC40 read?
Its AC40 is 12.6 µM.
